The test addresses T1, recombinant hRIPK2 protein (kinase domain aa 1-299-His-tagged) (Homo sapiens, UniProt O43353).
T1 construct: kinase domain aa 1-299-His-tagged; purchased Life Technologies PR7829A
The experiment in a line: RIPK2 AlphaLISA assay (displacement of bead-bound CZC-8004 from hRIPK2). The test is classed as binding. To be noted: recombinant hRIPK2 kinase domain 10 nM, 2 h at 23° C. The source says:
RIPK2 AlphaLISA® Assay (Amplified Luminescent Proximity Homogeneous Assay)
A non-specific kinase inhibitor (CZC-8004 Cayman #916603-07-1) bound to an acceptor bead (#6772001 PerkinElmer) was mixed to the recombinant hRIPK2 protein (kinase domain aa 1-299-His-tagged—Life Technologies PR7829A) and a Ni2+-tagged donor beads (#AS101D PerkinElmer). In the presence of an inhibitor, the compound beads displacement from hRIPK2 was followed by signal loss. In a 384-well ProxiPlate@ (Perkin Elmer, 6008280) add:
2 μL RIPK2 inhibitor (in DMSO 0.8%).
2 μL human recombinant RIPK2 (10 nM diluted in AlphaLISA buffer 1×).
4 μL Mix of […] 1/1000 in AlphaLISA buffer 1×.
Homogenize using a microtiter plate shaker and incubate for 2 h at 23° C.
Read using EnVision®-Alpha Reader (PerkinElmer) according to manufacturer specifications.
T1 sequence (O43353 1-299): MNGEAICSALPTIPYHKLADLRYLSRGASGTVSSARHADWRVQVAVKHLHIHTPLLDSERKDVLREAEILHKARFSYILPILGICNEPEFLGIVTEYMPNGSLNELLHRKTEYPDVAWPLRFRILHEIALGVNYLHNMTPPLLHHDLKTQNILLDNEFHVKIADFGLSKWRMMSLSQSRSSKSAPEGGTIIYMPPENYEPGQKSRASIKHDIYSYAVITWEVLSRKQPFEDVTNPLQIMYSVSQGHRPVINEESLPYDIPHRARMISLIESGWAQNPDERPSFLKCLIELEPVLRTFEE
In general, IC50 refers to the concentration that gives 50% inhibition. With `CCOc1cc2cc(c1)-c1cnn3ccc(nc13)OC[C@@H]1C[C@@H](OCCOC)C(=O)N1CCN2` (racemic) [Example 112, (12R,14S)-4-ethoxy-12-(2-methoxyethoxy)-16-oxa-7,10,20,21,24-pentaazapentacyclo[15.5.2.1^2,6.0^10,^14.0^20,^23]pentacosa-1(23),2(25),3,5,17(24),18,21-heptaen-11-one], the IC50 was under 10 nM. In the case of `C=Cc1cc2cc(c1)-c1cnn3ccc(nc13)OC[C@@H]1C[C@@H](OCC)C(=O)N1CCN2` [Example 102, (12R,14S)-4-ethenyl-12-ethoxy-16-oxa-7,10,20,21,24-pentaazapentacyclo[15.5.2.1^2,6.0^1°,^14.0^2°,^23]pentacosa-1(23),2,4,6(25),17(24),18,21-heptaen-11-one], the IC50 was under 10 nM. As to `CO[C@@H]1C[C@H]2COc3nc4c(cnn4cc3F)-c3cc(F)cc(c3)NCCN2C1=O` [Example 34, (12R,14S)-4,18-difluoro-12-methoxy-16-oxa-7,10,20,21,24-pentaazapentacyclo[15.5.2.1^2,6.0^10,^14.0^20,^23]pentacosa-1(23),2(25),3,5,17(24),18,21-heptaen-11-one], the IC50 was under 10 nM. Turning to `CCO[C@@H]1C[C@H]2COc3ccn4ncc(c4n3)-c3cc(C#N)cc(c3)NCCN2C1=O` [Example 23, (12R,14S)-12-ethoxy-11-oxo-16-oxa-7,10,20,21,24-pentaazapentacyclo[15.5.2.1^2,6.0^10,^14.0^20,^23]pentacosa-1(23),2,4,6(25),17(24),18,21-heptaene-4-carbonitrile], the IC50 was under 10 nM. As to `COCCO[C@@H]1C[C@H]2COc3ccn4ncc(c4n3)-c3cc(Cl)cc(c3)NCCN2C1=O` (racemic) [Example 116, (12R,14S)-4-chloro-12-(2-methoxyethoxy)-16-oxa-7,10,20,21,24-pentaazapentacyclo[15.5.2.1^2,6.0^10,^14.0^20,^23]pentacosa-1(23),2,4,6(25),17(24),18,21-heptaen-11-one], the IC50 is under 10 nM. On to `COc1cc2cc(c1)-c1cnn3ccc(nc13)OC[C@@H]1C[C@@H](O)C(=O)N1CCN2` [Example 90, (12R,14S)-12-hydroxy-4-methoxy-16-oxa-7,10,20,21,24-pentaazapentacyclo[15.5.2.1^2,6.0^1°,^14.0^2°,^23]pentacosa-1 (23),2,4,6(25),17(24),18,21-heptaen-11-one], for which the IC50 was under 10 nM. Turning to `O=C1[C@H](OCC2COC2)C[C@H]2COc3ccn4ncc(c4n3)-c3cc(F)cc(c3)NCCN12` [Example 91, (12R,14S)-4-fluoro-12-(oxetan-3-ylmethoxy)-16-oxa-7,10,20,21,24-pentaazapentacyclo[15.5.2.1^2,6.0^1°,^14.0^2°,^23]pentacosa-1(23),2(25),3,5,17(24),18,21-heptaen-11-one], the IC50 was under 10 nM. As for `CO[C@@H]1C[C@H]2COc3ccn4ncc(c4n3)-c3cc(cc(C4CC4)c3)NCCN2C1=O` [Example 108, (12R,14S)-4-cyclopropyl-12-methoxy-16-oxa-7,10,20,21,24-pentaazapentacyclo[15.5.2.1^2,6.0^10,^14.0^20,^23]pentacosa-1(23),2,4,6(25),17(24),18,21-heptaen-11-one], the figure is 100 to 11000 nM; as for `O=C1[C@H](OC2CC2)C[C@H]2COc3ccn4ncc(c4n3)-c3cc(F)cc(c3)NCCN12` [Example 80, (12R,14S)-12-cyclopropoxy-4-fluoro-16-oxa-7,10,20,21,24-pentaazapentacyclo[15.5.2.1^2,6.0^1°,^14.0^2°,^23]pentacosa-1(23),2(25),3,5,17(24),18,21-heptaen-11-one], under 10 nM. As to `[2H]C([2H])([2H])Oc1cc2cc(c1)-c1cnn3cc(OC)c(nc13)OC[C@@H]1C[C@@H](OCCOC)C(=O)N1CCN2` [Example 141, (12R,14S)-4-(^2H3)methoxy-18-methoxy-12-(2-methoxyethoxy)-16-oxa-7,10,20,21,24-pentaazapentacyclo[15.5.2.1^2,6.0^10,^14.0^20,^23]pentacosa-1(23),2,4,6(25),17(24),18,21-heptaen-11-one], the IC50 was under 10 nM. The value for `COc1cn2ncc3c2nc1OC[C@@H]1C[C@@H](OC)C(=O)N1CCNc1cc-3cc(C(F)(F)F)c1` [Example 2, (12R,14S)-12,18-dimethoxy-4-(trifluoromethyl)-16-oxa-7,10,20,21,24-pentaazapentacyclo[15.5.2.1^2,6.0^10,^14.0^20,^23]pentacosa-1(23),2(25),3,5,17(24),18,21-heptaen-11-one] was under 10 nM; that for `COCCO[C@@H]1C[C@H]2COc3ccn4ncc(c4n3)-c3cc(cc(OC(C)C)c3)NCCN2C1=O` (racemic) [Example 113, (12R,14S)-12-(2-methoxyethoxy)-4-(propan-2-yloxy)-16-oxa-7,10,20,21,24-pentaazapentacyclo[15.5.2.1^2,6.0^10,^14.0^20,^23]pentacosa-1(23),2(25),3,5,17(24),18,21-heptaen-11-one] was 10 to 100 nM. The value for `CO[C@@H]1C[C@H]2COc3ccn4ncc(c4n3)-c3cc(cc(-c4ncon4)c3)NCCN2C1=O` [Example 76, (12R,14S)-12-methoxy-4-(1,2,4-oxadiazol-3-yl)-16-oxa-7,10,20,21,24-pentaazapentacyclo[15.5.2.1^2,6.0^1°,^14.0^2°,^23]pentacosa-1(23),2(25),3,5,17(24),18,21-heptaen-11-one] was under 10 nM; that for `CO[C@@H]1C[C@H]2COc3ccn4ncc(c4n3)-c3cc(cc(-n4nc(C)cc4C)c3)NCCN2C1=O` [Example 83, (12R,14S)-4-(3,5-dimethyl-1H-pyrazol-1-yl)-12-methoxy-16-oxa-7,10,20,21,24-pentaazapentacyclo[15.5.2.1^2,6.0^1°,^14.0^2°,^23]pentacosa-1(23),2(25),3,5,17(24),18,21-heptaen-11-one] was under 10 nM. For `CCOc1cc2cc(c1)-c1cnn3ccc(nc13)OC[C@@H]1C[C@@H](OC)C(=O)N1CCN2` [Example 7, (12R,14S)-4-ethoxy-12-methoxy-16-oxa-7,10,20,21,24-pentaazapentacyclo[15.5.2.1^2,6.0^10,^14.0^20,^23]pentacosa-1(23),2(25),3,5,17(24),18,21-heptaen-11-one], the IC50 was under 10 nM. As for `COc1cc2cc(c1)-c1cnn3cc(OC)c(nc13)OC[C@@H]1C[C@@H](OCCN(C)C)C(=O)N1CCN2` [Example 135, (12R,14S)-12-[2-(dimethylamino)ethoxy]-4,18-dimethoxy-16-oxa-7,10,20,21,24-pentaazapentacyclo[15.5.2. 1^2,6.0^10,^14.0^20,^23]pentacosa-1(23),2,4,6(25),17(24),18, 21-heptaen-11-one], the IC50 is under 10 nM. `COCCO[C@@H]1C[C@H]2COc3nc4c(cnn4cc3OCCO)-c3cc(cc(OC)c3)NCCN2C1=O` [Example 139, (12R,14S)-18-(2-hydroxyethoxy)-4-methoxy-12-(2-methoxyethoxy)-16-oxa-7,10,20,21,24-pentaazapentacyclo[15.5.2.1^2,6.0^1°,^14.0^2°,^23]pentacosa-1(23),2,4,6(25),17(24),18,21-heptaen-11-one]: the IC50 is under 10 nM. The value for `COCCO[C@@H]1C[C@H]2COc3nc4c(cnn4cc3OC)-c3cc(cc(OC(C)C)c3)NCCN2C1=O` [Example 131, (12R,14S)-18-methoxy-12-(2-methoxyethoxy)-4-(propan-2-yloxy)-16-oxa-7,10,20,21,24-pentaazapentacyclo[15.5.2.1^2,6.0^10,^14.0^20,^23]pentacosa-1(23),2,4,6(25),17(24),18,21-heptaen-11-one] was under 10 nM; that for `CCO[C@@H]1C[C@H]2COc3ccn4ncc(c4n3)-c3cc(cc(C(=O)NC)c3)NCCN2C1=O` [Example 59, (12R,14S)-12-ethoxy-N-methyl-11-oxo-16-oxa-7,10,20,21,24-pentaazapentacyclo[15.5.2.1^2,6.0^10,^14.0^20,^23]pentacosa-1(23),2(25),3,5,17(24),18,21-heptaene-4-carboxamide] was under 10 nM; that for `COc1cc2cc(c1)-c1cnn3cc(OC)c(nc13)OC[C@@H]1C[C@@H](O)C(=O)N1CCN2` [Example 143, (12R,14S)-12-hydroxy-4,18-dimethoxy-16-oxa-7,10,20,21,24-pentaazapentacyclo[15.5.2. 1^2,6.0^10,^14.0^20,^23]pentacosa-1(23),2(25),3,5,17(24),18,21-heptaen-11-one] was under 10 nM. Take `CO[C@@H]1C[C@H]2COc3nc4c(cnn4cc3C)-c3cc(F)cc(c3)NCCN2C1=O` [Example 30, (12R,14S)-4-fluoro-12-methoxy-18-methyl-16-oxa-7,10,20,21,24-pentaazapentacyclo[15.5.2.1^2,6.0^10,^14.0^20,^23]pentacosa-1(23),2(25),3,5,17(24),18,21-heptaen-11-one]: the IC50 was under 10 nM. On to `[2H]C([2H])([2H])Oc1cc2cc(c1)-c1cnn3ccc(nc13)OC[C@@H]1C[C@@H](OC([2H])([2H])[2H])C(=O)N1CCN2` [Example 53, (12R,14S)-4,12-bis(^2H3)methoxy-16-oxa-7,10,20,21,24-pentaazapentacyclo[[15.5.2.1^2,6.0^10,^14.0^20,^23]pentacosa-1(23),2,4,6(25),17(24),18,21-heptaen-11-one], for which the IC50 is under 10 nM. As for `CO[C@@H]1C[C@H]2COc3ccn4ncc(c4n3)-c3cc(cc(C(=O)NOC(C)C)c3)NCCN2C1=O` [Example 107, (12R,14S)-12-methoxy-11-oxo-N-(propan-2-yloxy)-16-oxa-7,10,20,21,24-pentaazapentacyclo[15.5.2.1^2,6.0^10,^14.0^20,^23]pentacosa-1(23),2,4,6(25),17(24),18,21-heptaene-4-carboxamide], the IC50 lay in the range of 10 to 100 nM.

The values above are taken from patent US12630563B2, “Macrocyclic RIP2-kinase inhibitors” (Oncodesign S.A., priority 2020, dated 2026).
